Key:
Format in all cases: in vivo
[1] = test system: nitrite/nitrate (NOx); experiment: Tissue nitrite/nitrate level, mice with TNBS-induced colitis; settings: gastric and colon tissue, 1.11 mmol/kg, FIGS. 15a/15b
Protocol: (§1) Colonic inflammation was induced by intracolonic administration of TNBS (2,4,6-trinitrobenzenesulfonic acid) (40 mg/kg in 0.25 ml of 25% aqueous ethanol) through an 8-cm-long soft plastic catheter under transient diethylether anesthesia. In the sham-operated groups, only the vehicle for TNBS was administered. The animals were deprived of food, but not water, for 12 h before the enemas.
The levels of plasma nitrite/nitrate (NOx), stable end products of NO were measured by the Griess reaction. This assay depends on the reduction of nitrate to nitrite, which is then converted into a colored azo dye compound that is detected spectrophotometrically at 540 nm.
(§2) The above-described clinical studies were repeated with animals having colitis which was induced as described above. […] Two days after the enema the effects of the treatment were determined by measurement of body weight, blood gas analysis and biopsy. […] Surgery was performed to allow registration of the hemodynamic parameters at 1 h intervals for 6 h (cardiac output [CO] data were measured only at the end of the experiments). […] In addition, fluorescence confocal endomicroscopy was performed to examine the microvasculature and morphologic changes of the mucosa of the distal colon, and full-thickness tissue samples and venous blood samples were taken to determine the biochemical changes in the colon and plasma.

[2] = test system: myeloperoxidase (MPO); experiment: Tissue myeloperoxidase activity, rats with TNBS-induced colitis; settings: gastric and colon tissue, one day after 1.11 mmol/kg, vs untreated colitis and ASS groups, FIGS. 32a/32b
Protocol: as §1
Colon biopsies kept on ice were homogenized in phosphate buffer (pH 7.4) containing 50 mM Tris-HCl (Reanal, Budapest, Hungary), 0.1 mM EDTA, 0.5 mM dithiothreitol, 1 mM phenylmethylsulfonyl fluoride, 10 μg/ml soybean trypsin inhibitor, and 10 μg/ml leupeptin (Sigma Aldrich GmbH, Munich, Germany). […] The activity of myeloperoxidase (MPO) was measured on the pellet of the homogenate.
The activity of MPO as a marker of tissue leukocyte infiltration was measured on the pellet of the homogenate. […] The reaction led to the hydrogen peroxide-dependent oxidation of tetramethylbenzidine, which could be detected spectrophotometrically at 450 nm (UV-1601 spetrophotometer; Shimadzu, Kyoto, Japan). Myeloperoxidase activities were measured at 37° C.; the reaction was stopped after 5 minutes by the addition of 0.2 ml of H2SO4 (2 M), and the resulting data were referred to the protein content. […]

[3] = test system: TNF-α; experiment: Plasma TNF-α level, rats with TNBS-induced colitis; settings: 1.11 mmol/kg, vs untreated colitis group M, FIG. 30
Protocol: as §1
Plasma TNF-α concentrations were determined in duplicate by means of a commercially available enzyme-linked immunosorbent assay (Quantikine ultrasensitive enzyme-linked immunosorbent assay kit for rat TNF-α; Biomedica Hungaria Kft, Budapest, Hungary). […]
as §2

[4] = Haematocrit in blood, rats with TNBS-induced colitis; settings: 1.11 mmol/kg, vs groups L and M, FIG. 28
Protocol: as §1, §2

- haematocrit level in the blood [4]: slightly higher
Compound: CC(=O)Oc1ccccc1C(=O)NC(CO)(CO)CO [compound according to the invention]
- nitrite/nitrate level [1]: nitrite/nitrate levels comparable to those of healthy animals
- myeloperoxidase enzyme activity [2]: decrease of activity
- plasma TNF-α level [3]: significant decrease in the TNF-α level

Source: patent publication US20160326098A1, “Pharmaceutically Active Compound for Use as Anti-inflammatory Agent” (Pax Forschung GmbH, priority 2013, published 2016)
